Test [1] deals with T1, MRCKβ (Homo sapiens, UniProt Q9Y5S2).
T1 construct: purchased Millipore
Put plainly: IMAP fluorescence polarization in vitro kinase assay, MRCKβ. In kind it is biochemical. The settings on record: for Inhibition at 3 µM (%) / Inhibition at 30 µM (%): MRCKβ in vitro kinase assay, ATP at enzyme Km (0.7 µM); for Inhibition at 3 µM (%): 3 µM inhibitor; for Inhibition at 30 µM (%): 30 µM inhibitor; for inhibition at 3 µM: read-out: Inhibition at 3 µM (%); for inhibition at 30 µM: read-out: Inhibition at 30 µM (%); for IC50: 10 point dose-response, 0.002–40 µM, 0.7 µM ATP. (In general: Fluorescence polarisation rises when a labelled molecule tumbles more slowly, as on binding a larger partner.)

Test [2] concerns MRCK. More on the design: method as in earlier work. To be noted: >140 times higher ATP concentration; ref 27 (Amano et al.); cited from earlier work.
For test [3], the target named is T2, MRCKα (Homo sapiens, UniProt Q5VT25).
T2 construct: purchased Millipore
T2 sequence (Q5VT25 whole entry): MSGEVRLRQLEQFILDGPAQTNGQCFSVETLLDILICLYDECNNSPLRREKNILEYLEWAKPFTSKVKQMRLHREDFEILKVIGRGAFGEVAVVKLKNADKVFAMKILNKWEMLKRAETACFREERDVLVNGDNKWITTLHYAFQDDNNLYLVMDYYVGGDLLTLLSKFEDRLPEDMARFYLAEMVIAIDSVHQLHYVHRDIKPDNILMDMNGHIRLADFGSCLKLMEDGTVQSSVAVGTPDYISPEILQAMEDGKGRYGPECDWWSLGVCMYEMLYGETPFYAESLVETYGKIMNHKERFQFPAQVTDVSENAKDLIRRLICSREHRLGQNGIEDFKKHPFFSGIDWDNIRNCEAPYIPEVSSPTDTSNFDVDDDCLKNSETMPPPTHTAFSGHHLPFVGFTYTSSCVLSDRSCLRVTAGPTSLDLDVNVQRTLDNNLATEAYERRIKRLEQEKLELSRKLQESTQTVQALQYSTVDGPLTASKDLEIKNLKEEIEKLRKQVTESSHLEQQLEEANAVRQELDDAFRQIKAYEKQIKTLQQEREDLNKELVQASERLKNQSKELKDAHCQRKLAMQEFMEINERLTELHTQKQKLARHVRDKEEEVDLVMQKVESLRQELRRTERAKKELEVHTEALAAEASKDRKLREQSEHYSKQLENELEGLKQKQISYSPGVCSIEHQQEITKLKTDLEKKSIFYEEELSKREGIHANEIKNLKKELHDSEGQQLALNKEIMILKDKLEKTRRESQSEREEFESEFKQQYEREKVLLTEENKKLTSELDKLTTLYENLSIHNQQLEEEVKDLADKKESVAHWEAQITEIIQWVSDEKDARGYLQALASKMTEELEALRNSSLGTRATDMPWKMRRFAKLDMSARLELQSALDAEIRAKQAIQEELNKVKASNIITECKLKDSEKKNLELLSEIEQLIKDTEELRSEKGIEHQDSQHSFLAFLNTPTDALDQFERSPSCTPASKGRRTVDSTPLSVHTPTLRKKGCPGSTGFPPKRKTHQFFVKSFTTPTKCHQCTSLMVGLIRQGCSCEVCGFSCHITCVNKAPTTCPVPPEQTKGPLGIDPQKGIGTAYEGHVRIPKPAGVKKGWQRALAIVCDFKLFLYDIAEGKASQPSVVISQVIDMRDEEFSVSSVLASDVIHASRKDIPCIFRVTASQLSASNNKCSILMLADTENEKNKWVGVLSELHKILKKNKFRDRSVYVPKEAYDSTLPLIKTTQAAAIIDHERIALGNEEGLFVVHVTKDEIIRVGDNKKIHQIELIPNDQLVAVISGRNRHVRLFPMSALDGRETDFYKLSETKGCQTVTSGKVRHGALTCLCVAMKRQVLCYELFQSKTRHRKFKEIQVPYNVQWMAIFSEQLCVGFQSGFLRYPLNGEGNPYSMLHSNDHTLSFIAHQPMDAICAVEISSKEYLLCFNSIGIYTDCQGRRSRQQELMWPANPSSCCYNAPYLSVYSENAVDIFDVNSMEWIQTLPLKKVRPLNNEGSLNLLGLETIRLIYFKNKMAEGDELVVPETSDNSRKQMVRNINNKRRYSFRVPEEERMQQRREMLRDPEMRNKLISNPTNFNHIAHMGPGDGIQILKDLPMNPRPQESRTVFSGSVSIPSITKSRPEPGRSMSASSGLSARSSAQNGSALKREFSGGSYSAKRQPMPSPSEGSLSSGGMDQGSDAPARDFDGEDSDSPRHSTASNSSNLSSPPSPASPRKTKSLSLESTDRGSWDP
Put plainly: IMAP fluorescence polarization in vitro kinase assay, MRCKα. Format: biochemical. To be noted: 10 point dose-response, 0.002–40 µM, 0.7 µM ATP. The procedure:
Activity assays for MRCKα and β were performed using an IMAP fluorescence polarization assay kit (Molecular Devices Inc.). […] Dose response inhibition analyses were performed over a drug concentration range from 0.002–40 µM, and single point inhibition was assessed at 3 or 30 µM drug.

Test [4] relates to MDA MB 231 breast cancer cells. As to the kind of experiment: 3-dimensional inverse matrigel invasion assay. Format: cell-based. The settings on record: 5 days. The source says: The contribution of MRCK to tumor cell invasion was examined by knocking down both MRCKα and MRCKβ in MB 231 breast cancer cells and determining the effects in a 3-dimensional inverse matrigel invasion assay. The combined MRCKα plus MRCKβ knockdown could be achieved either with two siRNA duplexes targeting each mRNA transcript (MRCKα+β) or with a single siRNA duplex (MRCKα/β) that targets both (Figure 1A). Following plating on the underside of Transwell inserts containing a thick layer of matrigel and allowing 5 days for invasion through the porous filter and into the matrigel, the extent of MDA MB 231 cell invasion was determined by fixing and staining cells with propidium iodide, followed by confocal microscopic optical sectioning at 10 µm intervals (Figure 1B).
Cell invasion assays were as previously described. Complete Matrigel was thawed on ice, diluted 1∶1 with PBS and then 100 µl of diluted matrigel pipetted into Transwell inserts in a 24 well tissue culture plate and left to incubate for 30 minutes at 37°C to set. During this time cell suspensions of 3×10^5 cells per ml from each condition were prepared in their normal growth medium. When the Matrigel had set, the Transwell inserts were inverted and 100 µl of cell suspension pipetted onto the filter. […] ImageJ software was used for quantification. […]

T1 sequence (Q9Y5S2 whole entry): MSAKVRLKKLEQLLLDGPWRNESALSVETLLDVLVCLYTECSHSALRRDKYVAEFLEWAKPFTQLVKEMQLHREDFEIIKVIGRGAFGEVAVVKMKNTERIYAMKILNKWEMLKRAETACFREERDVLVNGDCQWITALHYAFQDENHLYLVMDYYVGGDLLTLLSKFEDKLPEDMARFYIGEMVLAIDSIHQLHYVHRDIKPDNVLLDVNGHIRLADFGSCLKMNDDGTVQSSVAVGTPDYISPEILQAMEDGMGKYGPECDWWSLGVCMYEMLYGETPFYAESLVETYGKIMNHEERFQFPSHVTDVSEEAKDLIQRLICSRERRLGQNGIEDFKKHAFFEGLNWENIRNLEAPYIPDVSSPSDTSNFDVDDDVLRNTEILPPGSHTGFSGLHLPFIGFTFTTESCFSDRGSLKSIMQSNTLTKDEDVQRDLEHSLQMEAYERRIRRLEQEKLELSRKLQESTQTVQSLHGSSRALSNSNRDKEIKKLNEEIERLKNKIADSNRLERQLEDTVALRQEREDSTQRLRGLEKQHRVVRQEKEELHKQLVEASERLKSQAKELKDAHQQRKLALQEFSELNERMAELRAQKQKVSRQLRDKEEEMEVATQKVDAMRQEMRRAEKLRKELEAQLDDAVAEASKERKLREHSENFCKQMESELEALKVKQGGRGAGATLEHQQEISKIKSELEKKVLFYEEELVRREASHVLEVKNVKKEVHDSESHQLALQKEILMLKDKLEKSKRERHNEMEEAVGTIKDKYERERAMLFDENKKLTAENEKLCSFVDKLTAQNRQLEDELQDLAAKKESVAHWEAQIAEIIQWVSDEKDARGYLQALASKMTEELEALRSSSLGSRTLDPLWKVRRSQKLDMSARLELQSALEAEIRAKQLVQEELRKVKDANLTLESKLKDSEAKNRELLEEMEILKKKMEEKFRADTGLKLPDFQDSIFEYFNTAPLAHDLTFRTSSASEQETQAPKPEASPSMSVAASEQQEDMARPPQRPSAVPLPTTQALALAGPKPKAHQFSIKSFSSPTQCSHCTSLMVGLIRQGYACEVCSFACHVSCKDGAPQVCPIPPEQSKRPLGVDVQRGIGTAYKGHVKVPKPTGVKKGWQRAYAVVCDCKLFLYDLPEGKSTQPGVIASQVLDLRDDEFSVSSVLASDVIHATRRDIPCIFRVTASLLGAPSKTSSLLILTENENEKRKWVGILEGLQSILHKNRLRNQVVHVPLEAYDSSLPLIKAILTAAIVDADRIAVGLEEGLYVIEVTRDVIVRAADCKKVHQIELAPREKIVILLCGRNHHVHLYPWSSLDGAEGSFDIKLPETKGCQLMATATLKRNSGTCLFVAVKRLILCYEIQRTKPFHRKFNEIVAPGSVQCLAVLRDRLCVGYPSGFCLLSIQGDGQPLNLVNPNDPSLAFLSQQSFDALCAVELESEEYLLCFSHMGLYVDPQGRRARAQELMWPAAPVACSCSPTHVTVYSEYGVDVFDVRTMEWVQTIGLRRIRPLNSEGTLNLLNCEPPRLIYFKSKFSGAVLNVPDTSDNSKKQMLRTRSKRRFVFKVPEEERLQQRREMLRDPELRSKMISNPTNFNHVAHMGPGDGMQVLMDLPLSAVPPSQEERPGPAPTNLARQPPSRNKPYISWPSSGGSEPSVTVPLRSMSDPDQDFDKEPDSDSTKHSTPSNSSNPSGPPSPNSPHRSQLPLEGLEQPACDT

Broadly, the Inhibition is the relative decrease from the control value, in per cent. Consider `CN(C)C[C@H]1CCn2c(c(C3=C(c4cn(C)c5ccccc45)C(=O)NC3=O)c3ccccc32)C1` [Ro-32-0432], for which, in test [1], the “Inhibition at 3 µM (%)” value is listed as 85.2% and the “Inhibition at 30 µM (%)” value worked out at 68.2%.
As usually defined, the inhibition is the share of the control response that was lost under treatment. Take `O=C1Cc2c([nH]c3ccc([N+](=O)[O-])cc23)-c2ccccc2N1` [Alsterpaullone]: in test [1], the inhibition at 3 µM came to 90.7% and the inhibition at 30 µM was 78.4%.
Turning to Cdk1/2 Inhibitor III, in test [1], the “Inhibition at 3 µM (%)” value was determined as 100% and the “Inhibition at 30 µM (%)” value was determined as 100%.
Consider `CN[C@@H]1C[C@H]2O[C@@](C)([C@@H]1OC)n1c3ccccc3c3c4c(c5c6ccccc6n2c5c31)C(=O)NC4` [Staurosporine], for which, in test [1], the inhibition at 3 µM was found to be 98.6% and the inhibition at 30 µM is 100%.
In the case of `COc1ccc2c(c1)c(C1=C(c3c[nH]c4ccccc34)C(=O)NC1=O)cn2CCCN(C)C` [Gö 6983], in test [1], the “Inhibition at 3 µM (%)” value is reported as 88.6% and the “Inhibition at 30 µM (%)” value worked out at 65.1%.
Take `O=S(=O)(c1cccc2cnccc12)N1CCCNCC1` [Fasudil]: the “Inhibition of MRCK activity” value in test [2] is listed as “did not effectively inhibit MRCK activity”.
By IC50 is commonly meant the midpoint of a concentration-inhibition curve. Read a high IC50 as a need for much substance. In the case of `NC(=O)Nc1sc(-c2ccc(F)cc2)cc1C(N)=O` [TPCA-1, 2-[(aminocarbonyl)amino]-5-(4-fluorophenyl)-3-thiophenecarboxamide], in test [3], the IC50 came out at 1040 ± 60 nM. For the same compound, in test [1], the IC50 was found to be 1690 ± 130 nM, the inhibition at 3 µM turned out to be 50.1% and the inhibition at 30 µM was determined as 88.9%.
Turning to `N#CCCc1ccc2c(c1)-c1[nH]c3ccc([N+](=O)[O-])cc3c1CC(=O)N2` [Alsterpaullone, 2-Cyanoethyl], in test [1], the “Inhibition at 3 µM (%)” value was determined as 98.4% and the “Inhibition at 30 µM (%)” value amounted to 94.8%.
Take `C[C@@H](N)[C@H]1CC[C@H](C(=O)Nc2ccncc2)CC1` [Y-27632]: in test [1], the IC50 was 470 ± 30 nM, the “Inhibition at 3 µM (%)” value amounted to 83.5% and the “Inhibition at 30 µM (%)” value is on record as 96.6%. Moreover, in test [4] (MDA MB 231 cells with MRCKα/β siRNA knockdown plus Y-27632 treatment), the “Invasion 40 µm above the transwell filter surface, combination with MRCKα/β knockdown” value is recorded as “significantly more effective than either MRCKα/β knockdown or Y-27632 treatment alone”. Moreover, the “Invasion 40 µm above the transwell filter surface, normalized to NTC siRNA transfected cells” value in test [4] (NTC siRNA transfected MDA MB 231 cells) is given as “significantly reduced invasion”.
In the case of `O=C1Nc2ccc3ncsc3c2/C1=C/c1cnc[nH]1` [PKR Inhibitor], in test [1], the “Inhibition at 3 µM (%)” value is 80.1% and the “Inhibition at 30 µM (%)” value is recorded as 100.5%.
On to `CN(C)CCCn1cc(C2=C(c3c[nH]c4ccccc34)C(=O)NC2=O)c2ccccc21` [Bisindolylmaleimide I], for which the “Inhibition at 3 µM (%)” value in test [1] was 87.9%.
Take `O=S(=O)(NCCNC/C=C/c1ccc(Br)cc1)c1cccc2cnccc12` [H-89]: in test [1], the “Inhibition at 3 µM (%)” value was determined as 79.3% and the “Inhibition at 30 µM (%)” value was determined as 99.1%.
The corresponding values for `COC(=O)[C@@]1(O)C[C@H]2O[C@]1(C)n1c3ccccc3c3c4c(c5c6ccccc6n2c5c31)C(=O)NC4` [K-252a, Nocardiopsis sp., K-252a] are 87.3% and 98.4%.
The corresponding values for `CCn1cnc2c(Nc3cccc(Cl)c3)nc(N[C@H]3CCCC[C@H]3N)nc21` [Cdk1 Inhibitor, CGP74514A] are 87.2% and 100%.

The values above are taken from publication PMC3176812, “Co-Crystal Structures of Inhibitors with MRCKβ, a Key Regulator of Tumor Cell Invasion” (PLoS ONE, 2011).
